From patent US12077503B2, “Substituted cyclic amides and their use as herbicides” (FMC CORPORATION, priority 2015, dated 2024)

Assays:
Type in all cases: in vivo
[1] = tested on: ragweed (common ragweed, Ambrosia elatior); test: Test A preemergence; conditions: Ambrosia artemisiifolia, pre-emergence, 240 h, read-out: Plant response rating, Ragweed; for pest or weed control at 125 g/ha: 125 g ai/ha, preemergence, visual rating after approx. 10 d, 0 to 100 scale where 0 is no effect and 100 is complete control; for pest or weed control at 31 g/ha: Preemergence, 31 g ai/ha, 0 to 100 scale (0 no effect, 100 complete control)
Method in brief: (§1)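 Greenhouse, ~10 d after spray; visual injury vs untreated controls, 0 = no effect, 100 = complete control. Preemergence: directed soil spray over planted seeds. Postemergence: plants 2–10 cm, 1–2 leaf stage. Loam/sand blend. Compound in non-phytotoxic solvent with surfactant.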

[2] = tested on: ryegrass, Italian (Italian ryegrass, Lolium multiflorum); test: Test A preemergence; conditions: Lolium multiflorum, pre-emergence, 240 h, read-out: Plant response rating, Ryegrass, Italian; for pest or weed control at 125 g/ha: 125 g ai/ha, preemergence, visual rating after approx. 10 d, 0 to 100 scale where 0 is no effect and 100 is complete control; for pest or weed control at 31 g/ha: Preemergence, 31 g ai/ha, 0 to 100 scale (0 no effect, 100 complete control)
Method in brief: as §1

[3] = tested on: barnyardgrass (Echinochloa crus-galli); test: Test A preemergence; conditions: Echinochloa crus-galli, pre-emergence, 240 h, read-out: Plant response rating, Barnyardgrass; for pest or weed control at 125 g/ha: 125 g ai/ha, preemergence, visual rating after approx. 10 d, 0 to 100 scale where 0 is no effect and 100 is complete control; for pest or weed control at 31 g/ha: Preemergence, 31 g ai/ha, 0 to 100 scale (0 no effect, 100 complete control)
Method in brief: as §1

[4] = tested on: pigweed (Amaranthus retroflexus); test: Test A preemergence; conditions: Amaranthus retroflexus, pre-emergence, 240 h, read-out: Plant response rating, Pigweed; for pest or weed control at 125 g/ha: 125 g ai/ha, preemergence, visual rating after approx. 10 d, 0 to 100 scale where 0 is no effect and 100 is complete control; for pest or weed control at 31 g/ha: Preemergence, 31 g ai/ha, 0 to 100 scale (0 no effect, 100 complete control)
[5] = tested on: giant foxtail (Setaria faberii); test: Test A preemergence; conditions: Setaria faberi, pre-emergence, 240 h, read-out: Plant response rating, Foxtail, Giant; for pest or weed control at 125 g/ha: 125 g ai/ha, preemergence, visual rating after approx. 10 d, 0 to 100 scale where 0 is no effect and 100 is complete control; for pest or weed control at 31 g/ha: Preemergence, 31 g ai/ha, 0 to 100 scale (0 no effect, 100 complete control)
Method in brief: as §1

Kochia (Kochia scoparia) = test: Test A preemergence; conditions: Bassia scoparia, pre-emergence, 240 h, read-out: Plant response rating, Kochia; for pest or weed control at 125 g/ha: 125 g ai/ha, preemergence, visual rating after approx. 10 d, 0 to 100 scale where 0 is no effect and 100 is complete control; for pest or weed control at 31 g/ha: Preemergence, 31 g ai/ha, 0 to 100 scale (0 no effect, 100 complete control)
Method in brief: as §1

[6] = tested on: sedge, umbrella (small-flower umbrella sedge, Cyperus difformis); test: Test B flooded paddy test; conditions: Cyperus difformis, Flood, 250 g ai/ha; scale of 0 to 100 where 0 is no effect and 100 is complete control; read-out: Sedge, Umbrella plant response rating
Method in brief: (§2)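 Evaluation by eye, against controls, occurred 13–15 d post-treatment in a greenhouse, using a 0 (no effect) to 100 (complete control) scale. Application was into the paddy water, 3 cm deep over the soil, on 2-leaf plants.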

[7] = tested on: ducksalad (Heteranthera limosa); test: Test B flooded paddy test; conditions: Heteranthera limosa, Flood, 250 g ai/ha; scale of 0 to 100 where 0 is no effect and 100 is complete control; read-out: Ducksalad plant response rating
Method in brief: as §2

rice (Oryra sativa) = test: Test B flooded paddy test; conditions: Oryza sativa, Flood, 250 g ai/ha; scale of 0 to 100 where 0 is no effect and 100 is complete control; read-out: Rice plant response rating
Method in brief: as §2

[8] = tested on: barnyardgrass (Echinochloa crus-galli); test: Test B flooded paddy test; conditions: Echinochloa crus-galli, Flood, 250 g ai/ha; scale of 0 to 100 where 0 is no effect and 100 is complete control; read-out: Barnyardgrass plant response rating
Method in brief: as §2

[9] = tested on: Galium (catchweed bedstraw, Galium aparine); test: Test A postemergence; conditions: Galium, post-emergence, 240 h, read-out: Plant response rating, Galium; for pest or weed control at 125 g/ha: 125 g ai/ha, postemergence, visual injury after approximately 10 d, 0 to 100 scale (0 no effect, 100 complete control); for pest or weed control at 31 g/ha: Postemergence, 31 g ai/ha, visual injury after approx. 10 d, 0 to 100 scale, 0 no effect, 100 complete control
Method in brief: as §1

[10] = tested on: barnyardgrass (Echinochloa crus-galli); test: Test A postemergence; conditions: Echinochloa crus-galli, post-emergence, 240 h, read-out: Plant response rating, Barnyardgrass; for pest or weed control at 125 g/ha: 125 g ai/ha, postemergence, visual injury after approximately 10 d, 0 to 100 scale (0 no effect, 100 complete control); for pest or weed control at 31 g/ha: Postemergence, 31 g ai/ha, visual injury after approx. 10 d, 0 to 100 scale, 0 no effect, 100 complete control
Method in brief: as §1

[11] = tested on: wheat (Triticum aestivum); test: Test A postemergence; conditions: Triticum aestivum, post-emergence, 240 h, Postemergence, 31 g ai/ha; visual injury after approx. 10 d; 0 to 100 scale, 0 no effect, 100 complete control; read-out: Plant response rating, Wheat
Method in brief: as §1

[12] = tested on: giant foxtail (Setaria faberii); test: Test A postemergence; conditions: Setaria faberi, post-emergence, 240 h, read-out: Plant response rating, Foxtail, Giant; for pest or weed control at 125 g/ha: 125 g ai/ha, postemergence, visual injury after approximately 10 d, 0 to 100 scale (0 no effect, 100 complete control); for pest or weed control at 31 g/ha: Postemergence, 31 g ai/ha, visual injury after approx. 10 d, 0 to 100 scale, 0 no effect, 100 complete control
Method in brief: as §1

Row | SMILES | pest or weed control at 125 g/ha [1] [%] | pest or weed control at 31 g/ha [1] [%] | pest or weed control at 125 g/ha [2] [%] | pest or weed control at 31 g/ha [2] [%] | pest or weed control at 125 g/ha [3] [%] | pest or weed control at 31 g/ha [3] [%] | pest or weed control at 125 g/ha [4] [%] | pest or weed control at 31 g/ha [4] [%] | pest or weed control at 125 g/ha [5] [%] | pest or weed control at 31 g/ha [5] [%] | pest or weed control at 125 g/ha (Kochia (Kochia scoparia)) [%] | pest or weed control at 31 g/ha (Kochia (Kochia scoparia)) [%] | pest or weed control at 250 g/ha [6] [%] | pest or weed control at 250 g/ha [7] [%] | pest or weed control at 250 g/ha (rice (Oryra sativa)) [%] | pest or weed control at 250 g/ha [8] [%] | pest or weed control at 125 g/ha [9] [%] | pest or weed control at 31 g/ha [9] [%] | pest or weed control at 125 g/ha [10] [%] | pest or weed control at 31 g/ha [10] [%] | other results
1 | C/C=C/C1CNC(=O)C1C(=O)Nc1cccc(F)c1F (stereo not shown) [Compound 793] | 0 | 0 | 0 | 0 | 0 | 0 | 0 | 0 | 0 | 0 | 0 | 0 | 25 | 25 | 0 | 0 | 0 | 0 | 0 | 0 | plant injury at 31 g/ha [11]: 0%; pest or weed control at 125 g/ha [12]: 0%; pest or weed control at 31 g/ha [12]: 0%
2 | CN1CC[C@@H](c2cccc(C(F)(F)F)c2)[C@H](C(=O)Nc2ccccc2F)C1=O [Compound 794] | 0 | 0 | 0 | 0 | 90 | 70 | 0 | 0 | 90 | 30 | 0 | 0 | 0 | 30 | 20 | 40 | 0 | 0 | 30 | 0 | plant injury at 31 g/ha [11]: 0%; pest or weed control at 125 g/ha [12]: 30%; pest or weed control at 31 g/ha [12]: 0%
3 | CSc1ccccc1NC(=O)[C@H]1C(=O)N(C)C[C@@H]1c1cc(C)c(C)c(C)c1 [Compound 798] | 0 | 0 | 0 | 0 | 80 | 20 | 40 | 30 | 90 | 70 | 20 | 0 | 0 | 50 | 40 | 75 | 20 | 0 | 80 | 40 | plant injury at 31 g/ha [11]: 0%; pest or weed control at 125 g/ha [12]: 70%; pest or weed control at 31 g/ha [12]: 20%
4 | CSc1ccccc1NC(=O)[C@H]1C(=O)N(C)C[C@@H]1c1ccc(C(F)F)cc1 [Compound 799] | 0 | 0 | 0 | 0 | 40 | 0 | 40 | 30 | 90 | 70 | 40 | 0 | 0 | 80 | 30 | 65 | 50 | 0 | 70 | 40 | plant injury at 31 g/ha [11]: 0%; pest or weed control at 125 g/ha [12]: 80%; pest or weed control at 31 g/ha [12]: 40%
5 | Cc1cc(F)cc([C@H]2CN(C)C(=O)[C@@H]2C(=O)Nc2ccc(F)c(F)c2F)c1 [Compound 801] | 60 | 20 | 20 | 0 | 90 | 80 | 30 | 30 | 90 | 80 | 70 | 40 | 40 | 90 | 30 | 90 | 60 | 30 | 90 | 80 | plant injury at 31 g/ha [11]: 0%; pest or weed control at 125 g/ha [12]: 90%; pest or weed control at 31 g/ha [12]: 70%
